The results in this text go back to paper PMC3438169 (PLoS ONE, 2012).

SMILES strings stand for the structures. *1 amine or outer side, *2 acyl side, *3 side chain or, on linkers, in order; H or OH if unused. Where a SMILES comes first, the peptide text is derived from it. [ ]: non-standard residue; d: D form. dAla(ψthiazole) = C[C@@H](N[*:1])c1nc(C(=O)[*:2])cs1; Trp(4-OMe) = COc1cccc2[nH]cc(C[C@H](N)C(=O)O)c12; dAbu = CC[C@@H](N)C(=O)O; Dha = C=C(N)C(=O)O; Sar = CNCC(=O)O A value given as a limit tells only on which side of the number the result lay.

Assay [1] has as its system recombinant human mEF-G1 S452L. In words: Biacore binding, human mEF-G1 S452L. The following applies: 10, 20, 40 µM, HBS-P+ pH 7.4, 4% DMSO. From the text:
(§1) GFM1 encoding the active site of EF-G1 (residues 36–751) was PCR amplified from pDONR221 constructs using primers (GGGGACAAGTTTGTACAAAAAAGCAGGCTTAATGTCTTCATCAGGGGTGATT, GGGGACCACTTTGTACAAGAAAGCTGGGTATTAGTTCTTGGCTTTTCC). P. aeroginosa fusA1 encoding full-length EF-G was PCR amplified from pET28a-PaEFG-Nhis using primers (GGGGACCACTTTGTACAAGAAAGCTGGGTATTATCAACCTTGTTTTTT, GGGGACAAGTTTGTACAAAAAAGCAGGCTTAATGGCCCGTACTACACCC). Purified PCR products were cloned into the pDONR221 vector using Gateway cloning and BP Clonase II (Invitrogen), shuttled into an E.coli protein expression vector for N-terminal tagging (Avitag-His6 vector) using LR Clonase II (Invitrogen), and verified by sequencing. Avitag-His6-hEF-G1 and Avitag-His6-PaEF-G constructs were transformed into BL21-AI cells (Invitrogen) and isolated single colonies were used to inoculate 5 ml cultures which were grown overnight at 37°C with shaking. […]. Briefly, protein was captured on column using binding buffer (50 mM Tris; pH 7.5, 300 mM NaCl, 20 mM imidazole, 10% glycerol), washed extensively with washing buffer (50 mM Tris; pH 7.5, 500 mM NaCl, 30 mM imidazole, 10% glycerol), and then eluted with elution buffer (50 mM Tris; pH 7.5, 500 mM NaCl, 250 mM imidazole, 10% glycerol). […]

The test system of assay [2] is recombinant human mEF-G1 WT. As to the kind of experiment: Biacore binding, human mEF-G1 WT. The note with it: 10, 20, 40 µM, HBS-P+ pH 7.4, 4% DMSO.
Source text: as §1

In assay [3] the test system is efflux-defective yeast strain (BYΔ8). In words: Yeast colony formation on ethanol/glycerol medium. The following applies: 0.1 µM argyrin B. Format: cell-based, S. cerevisiae. Here is the method:
(§2) Strain BYΔ8 was incubated in 2.5% ethylmethanesulfonate until only 50% of the cells formed colonies. […] Amplifying the mutated MEF1 gene and transforming it into non-mutagenized BYΔ8 cells validated identified mutations in MEF1.

The subject of assay [4] is B. multivorans. As to the kind of experiment: Broth microdilution susceptibility to argyrin B, B. multivorans strains. Format: cell-based.
Assay [5] concerns succinate dehydrogenase flavoprotein subunit (SDHA). In words: Immunoblot of nuclear-encoded SDHA in HCT116 and RKO cells. Format: cell-based, human. The note with it: 4 days. The procedure:
Whole cell lysates were prepared using RIPA buffer (Cell Signaling Technology) supplemented with EDTA-free protease inhibitor cocktail (Roche Applied Science), cleared by centrifugation at 16,000× g for 10 min, normalized based on protein concentration (Bio-Rad protein assay), boiled in NuPAGE LDS sample buffer (Invitrogen) supplemented with 2% ß-mercaptoethanol, and separated on NuPAGE 4–12% Bis-Tris gels using MOPS running buffer (Invitrogen). Proteins were transferred to nitrocellulose membranes and probed with the following primary antibodies: rabbit polyclonal antibody against mEF-G1 (Sigma, HPA034765), rabbit monoclonal antibody against GAPDH (Cell Signaling Technology, 14C10), mouse monoclonal antibodies against COX2 (Invitrogen, A6404) or SDHA (MitoSciences, MS204). Immobilized primary antibodies were visualized using HRP-conjugated anti-rabbit or anti-mouse IgG (Millipore, AP307P and AP308P) and enhanced chemiluminescence (Pierce).

For assay [6], the system named is BYΔ8 strain with MEF1 mutations. In words: Yeast susceptibility determination, MEF1 mutants in BYΔ8 background. The assay is classed as cell-based, S. cerevisiae. The note with it: Figure 2D: all argyrin B concentrations in the range tested. The procedure: Yeast strains used in this study are BY4741 [32] and strain BYΔ8, derived from BY4741 but deleted for eight genes involved in drug resistance (efflux pumps: snq2, pdr5, yor1; transcription factors: pdr1, pdr2, pdr3, yap1, yrm1). […] Starting OD600 was 0.1, total volume per well 120 µl. Plates were incubated at 30°C with 770 RPM orbital shaking.
as §2

The subject of assay [7] is Cox4-GFP labeled mitochondria. As to the kind of experiment: Microscopy of mitochondrial morphology (Cox4-GFP). Format: cell-based, S. cerevisiae. The following applies: 3× IC30 (10 µM on YPEG), 30 minutes, ethanol/glycerol. Here is the method:
BY4741 cells containing a genomic COX4-GFP fusion where grown to mid-log phase in glucose and ethanol/glycerol media and incubated with the corresponding concentrations of compound for 30 minutes. Aliquots where spotted on microscopy slides and directly imaged on a Zeiss Axiovert 200Mot microscope equipped with a AxioCam MRm digital camera using the Plan-Neofluar 100×, 1.3 oil PH3 objective (Carl Zeiss, Feldbach, Switzerland). A z-stack consisting of 3 images spaced by […] in the filterset 38 (eGFP) channel and a phase-contrast image where acquired. False colors where applied to the GFP images (green) and phase contrast (blue) and the images merged into one plane and scaled to 8-bit. Representative, individual cells where selected and assembled into a panel using Adobe Photoshop (Adobe Systems Inc.).

The subject of assay [8] is recombinant human mEF-G1 L693Q. As to the kind of experiment: Biacore binding, human mEF-G1 L693Q. The following applies: 10, 20, 40 µM, HBS-P+ pH 7.4, 4% DMSO.
Source text: as §1

In assay [9] the test system is B. multivorans. As to the kind of experiment: Resistant mutant selection, B. multivorans. The assay is classed as cell-based. The following applies: Mueller-Hinton agar, 4 or 16 µg/ml argyrin B. Here is the method: Resistance frequencies were calculated as the number of CFU (mutants) on drug containing plates divided by the number of CFU plated. Whole genome sequencing was done as described previously. The fusA1 gene from P. aeruginosa was generated for sequencing in two parts, using primer pairs PAEFF1/PAEFR1: […]/[…] and EFF2/EFR1: […]/[…]. The fusA1 gene from B. multivorans was generated as a single band using BCEFGF1/BCEFGR1: […]/[…]. Nucleotide sequencing of the products was done by Agencourt (Beverly MA).

The subject of assay [10] is recombinant human mEF-G1 S494F. In words: Biacore binding, human mEF-G1 S494F. The following applies: 10, 20, 40 µM, HBS-P+ pH 7.4, 4% DMSO.
Source text: as §1

On to `C=C1NC(=O)CN(C)C(=O)CNC(=O)[C@H](Cc2c[nH]c3cccc(OC)c23)NC(=O)[C@H](Cc2c[nH]c3ccccc23)NC(=O)c2csc(n2)[C@@H](C)NC(=O)[C@@H](CC)NC1=O` [argyrin B] (cyclo([dAbu][dAla(ψthiazole)]W[Trp(4-OMe)]G[Sar][Dha])), for which the “Binding to human mEF-G1 (in words)” value is “still bound” in [1], “still bound” in [2], “little binding detected” in assay [8] and “still bound” in assay [10]. The “Colony formation (in words)” value in assay [3] is on record as “abolished colony formation”. Besides, the “Susceptibility to argyrin B” value was over 32 µg/mL in the assay with B. multivorans [4] (B. multivorans CDA0079 (FusA1 P484R)); over 32 µg/mL in the assay with B. multivorans [4] (B. multivorans CDA0080 (FusA1 S415L)); over 32 µg/mL with B. multivorans [4] (B. multivorans CDA0093 (FusA1 S415W)); over 32 µg/mL in the assay with B. multivorans [4] (B. multivorans CDA0094 (FusA1 L656P)); 1 µg/mL with B. multivorans [4] (B. multivorans NB49004 (clinical isolate)). Also, the “SDHA protein level (in words)” value in assay [5] (HCT116, 1 µM argyrin B) was “did not affect the levels”; in assay [5] (RKO, 1 µM argyrin B) it was “did not affect the levels”. In addition, the “Inhibition of the wild-type (MEF1wt) strain (in words)” value in assay [6] is on record as “full inhibiton of the wild-type strain”. Besides, in [7], the “Mitochondrial morphology (in words)” value is “mitochondrial morphology defects (fragmentation)”. In the assay on B. multivorans [9], the “frequency of argyrin B resistant mutants” value is recorded as 10^−9–10^−8.
